{
  "source": "patent US20240139199A1",
  "about": "“USE OF ADENINE IN PREPARATION OF DRUG FOR TREATING DIABETIC ULCERS” (Energenesis Biomedical Co., Ltd., priority 2021, published 2024)",
  "key": {"diabetic ulcers": {"tested_on": "diabetic ulcers", "assay": "double arm, double-blind study of adenine gel in subjects with diabetic ulcers (wound healing)", "assay_type": "in vivo, human", "description": "The efficacy of adenine and/or a pharmaceutically acceptable salt thereof as a therapeutic agent for diabetic ulcers was evaluated through a double arm, double-blind study as disclosed in the present disclosure. The groups consist of a 0.02% adenine gel group and a placebo group. The basic information of the subjects is shown in Table 1, while the analysis of wound healing rates based on the Wagner-[…] ulcer classification system and initial wound area size is presented in Tables 2 to 4 below, respectively. Similarly, in a double arm, double-blind study as described in Example 1, the present disclosure evaluated the effects of the disclosed adenine and/or a pharmaceutically acceptable salt thereof as a medicament for treating the diabetic ulcers."}, "fibroblast": {"tested_on": "fibroblast", "assay": "fibroblast growth inhibition (stated finding, no method given)", "assay_type": "cell-based"}, "COX-2": {"tested_on": "COX-2", "assay": "COX-2 protein expression (stated finding, no method given)", "assay_type": "cell-based"}},
  "data": [
    {"compound": "Nc1ncnc2nc[nH]c12", "note": "[adenine]", "values": [
      {"measurement": "wound healing effect (in words)", "setting": "diabetic ulcers; Grade 1 and/or Grade 2 ulcers, or wound area 1.5 to 25 square centimeters", "result": "remarkably superior effects in accelerating and enhancing wound healing"},
      {"measurement": "scar formation", "setting": "diabetic ulcers; directly administered to ulcer wounds in diabetic patients", "result": "scar formation is reduced"},
      {"measurement": "onset of wound healing (in words)", "setting": "diabetic ulcers; results from Table 5", "result": "rapid and effective healing starting from the fourth week"},
      {"measurement": "fibroblast growth", "setting": "fibroblast", "result": "inhibit fibroblast growth"},
      {"measurement": "protein expression of COX-2", "setting": "COX-2", "result": "reduce protein expression of COX-2"}
    ]}
  ]
}
